The source of these data is article PMC12595476, “FibrilPaint to determine the length of Tau amyloids in fluids” (Proceedings of the National Academy of Sciences of the …, 2025).

Peptide text beside a SMILES is read from it. * marks the point of attachment. 5FAM = O=C1OC2(c3ccc(O)cc3Oc3cc(O)ccc32)c2ccc(C(=O)*)cc21 A value given as a limit tells only on which side of the number the result lay.

Series [1] addresses T1, TauRD fibrils (Homo sapiens, UniProt P10636, DEL597-597).
T1 construct: We used Tau Repeat Domain (Q244-E372, TauRD) with the proaggregation mutation ΔK280; made in house; host or cells: E. coli BL21 Rosetta 2
The experiment in a line: Monolith (MST / spectral shift) binding to TauRD fibrils. To be noted: based on monomer concentration; 50 nM FibrilPaint1, TauRD fibrils 0.5 nM to 10 µM, pH 7.5, 37 °C; N = 3. The method, then: (§1) We confirmed that FibrilPaint1 binds specifically TauRD fibrils and not monomers by assessing binding affinity with monolith spectral shift analysis (Fig. 1 D and E). […] Since many monomers are needed to form one fibril, true affinity lies higher.
(§2) FibrilPaint1 (50 nM) was titrated with TauRD monomer or fibrils (0.5 nM to 10 µM) at 37 °C (Monolith NT.115); binding was extracted from the 5 s MST response.
(§3) Aragonès Pedrola, Dekker, et al. August 2025 FibrilPaint
(§4) FibrilRuler Test: Size measurement with Flow Induced Dispersion […]
(§5) Flow Induced Dispersion Analysis (FIDA) was used to determine fibril size. The FIDA experiments were performed using a FIDA1 with a 480 nm excitation source. […]
(§6) Data points were analysed using FIDAbio software, version 2.7. […]
(§7) Binding between FibrilPaint1 and TauRD monomers and fibrils was analyzed using Monolith (NanoTemper Technologies) Microscale thermophoresis system (MST). Thermophoresis was monitored at a concentration of 50 nM of FibrilPaint1 and a dilution series of the sample of interest, in 25 mM HEPES-KOH pH 7.5, 75 mM KCl, 75 mM NaCl. […]
(§8) Using equation 1, where L is the length and R the radius of the analysed particle, the mean length of the fibrils as function of Rh can be calculated.
(§9) As a model, PHF Fibril layers were stacked on top of each other using PyMOL software. […] Resulting structures were analysed for their Rh using FIDAbio hydrodynamic radii predictor.

In series [2] the target is T2, TauRD monomers (Homo sapiens, UniProt P10636, DEL597-597).
T2 construct: We used Tau Repeat Domain (Q244-E372, TauRD) with the proaggregation mutation ΔK280; made in house; host or cells: E. coli BL21 Rosetta 2
Nature of the series: Monolith (MST / spectral shift) binding to TauRD monomers. Particulars: 50 nM FibrilPaint1, 37 °C, N = 3, unit inferred. The method, then:
as §1, §2, §3, §4, §5, §6, §7, §8, §9

The subject of series [3] is TauRD (Tau Repeat Domain Q244-E372, ΔK280). The experiment in a line: ThT assay of TauRD aggregation with titrated FibrilPaint peptides (ThT inhibition). The class given is biochemical, human. Particulars: for ThT end-plateau / emitted ThT signal: 20 μM TauRD, 5 µM heparin, 45 µM ThT, peptide 2, 0.2, 0.02 µM, pH 7.4, 37 °C, triplicates, N = 3; for Tht inhibition: Yes/No, Suppl. Table S1. The text has this:
We used Tau Repeat Domain (Q244-E372, TauRD) with the proaggregation mutation ΔK280 as a model for screening our FibrilPaint compounds. We performed a Thioflavin T (ThT) assay. ThT is an amyloid dye and provides a semiqualitative method used for the identification of amyloid structures in vitro and histology staining ([32], [33], [38]). A ThT assay is an established method to monitor protein fibrils formation, in which the fluorescent dye ThT emits fluorescence upon binding to fibrils ([38]). We identified 45 µM ThT as optimal concentration to study the kinetics of TauRD aggregation (SI Appendix, Fig. S1), in line with the literature ([39]).
Twenty µM TauRD + 5 µM heparin were incubated ± 45 µM ThT in 25 mM HEPES-KOH pH 7.4, 75 mM KCl/NaCl (37 °C). ThT fluorescence (440/485 nm) was recorded every 5 min for 24 h on a CLARIOstar® Plus; peptides were added as indicated. […]
Peptide synthesis and purification
The peptides were synthesized using a Liberty Blue Microwave-Assisted Peptide Synthesizer (CEM) with standard Fmoc chemistry and Oxyma/DIC as coupling reagents. The peptide concentrations were measured by UV spectroscopy. The peptides were labeled with 5(6)-carboxyfluorescein at their N’ termini. The peptides were cleaved from the resin with a mixture of 95% (v/v) trifluoroacetic acid (TFA), 2.5% (v/v) triisopropylsilane (TIS), 2.5% (v/v) triple distilled water (TDW) agitating vigorously for 3 hours at room temperature. The volume was decreased by N2 flux and the peptides precipitated by addition of 4 volumes of diethylether at -20 °C. The peptides were sedimented at -20 °C for 30 minutes, then centrifuged and the diethylether discarded. The peptides were washed three times with diethylether and dried by gentle N2 flux. The solid was dissolved in 1:2 volume ratio of acetonitrile (ACN):TDW, frozen in liquid Nitrogen and lyophilized.
The peptides were purified on a WATERS HPLC using a reverse-phase C18 preparative column with a gradient of ACN/TDW. The identity and purity of the peptides was verified by ESI mass spectrometry and Merck Hitachi analytical HPLC using a reverse-phase C8 analytical column.
Aggregation of 20 µM TauRD in 25 mM HEPES-KOH pH 7.4, 75 mM KCl, 75 mM
NaCl, ½ tablet/50 ml Protease Inhibitor, was induced by the addition 5 µM of heparin low molecular weight Impact of FibrilPaint peptides was assessed by adding 0.02, 0.2 or 2 µM of peptide.
Monitoring TauRD aggregation by thioflavin T (ThT) fluorescence
For monitoring the aggregation of TauRD by fluorescence, ThT was added to the aggregation mixture before addition of heparin. We used 45 µM ThT as standard condition, unless stated otherwise. […]. […]

For series [4], the target named is T1, TauRD fibrils. Nature of the series: FIDA (FibrilRuler Test): binding to TauRD fibrils. Particulars: detection of Tau amyloid fibrils with FIDA; Yes/No; Suppl. Table S1.
From the text: (§10) Next, we screened the four FibrilPaint peptides for direct binding to TauRD fibrils. We developed an application of FIDA to determine the size of amyloid aggregates, called the FibrilRuler Test (Fig. 1B). FIDA is a recently established technique to measure size of protein complexes ([40], [41]). In FIDA, the detector records the fluorescence signal after passage of the sample through a long capillary. The sample passes a detector window, resulting in a size-dependent diffusion profile of the fluorescent compound. Smaller species diffuse faster and bigger ones slower, resulting in a narrow or broad dispersion of the fluorescent signal (Fig. 1B). Since FIDA readout relies on the physical diffusion properties of the sample, we can measure the hydrodynamic radius (Rh) of labeled species from the fluorescent signal ([42]–[44]). The Rh is a parameter corresponding to the size and shape of a molecule or a complex in solution. It is the radius of the sphere created by the tumbling particle. Rh values can be estimated from the structural coordinates, either by experimental methods or by predictions such as AlphaFold (SI Appendix, Table S2). For known structures, e.g., for many protein fibrils, an experimentally determined Rh value allows us to estimate the dimensions of the particle.
(§11) With this setup, we determined the Rh of FibrilPaint1 to 4 to be 1.7 nm each (SI Appendix, Table S1). The binding of the fluorescently labeled FibrilPaint peptide to protein fibrils increases the Rh value, as the peptide now tumbles together with the larger fibril (Fig. 1B). To measure the Rh of fibril complexes, we incubated preformed fibrils together with each of the four peptides in a 1:100 peptide:monomer ratio, using 200 nM peptide with fibrils made of 20 μM TauRD monomers.
(§12) Preformed or patient-derived fibrils (2 µM monomer) were mixed with 50 nM Fl-FibrilPaint1 and analyzed in capillary dissociation mode (25 °C, FIDA 1). […]
as §6
Target sequence in this assay (P10636 with tags, fused parts or gaps isoform P10636-8 DEL280-280): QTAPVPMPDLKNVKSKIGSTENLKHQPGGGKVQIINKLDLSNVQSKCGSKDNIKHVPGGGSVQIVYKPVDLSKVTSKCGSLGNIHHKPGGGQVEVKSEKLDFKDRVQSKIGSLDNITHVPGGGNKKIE

The nature of series [5]: FIDA: Rh of peptide alone (unbound). Format: physicochemical. To be noted: peptide not bound to anything.
From the text: as §10, §11, §12, §6

For series [6], the system named is Amyloid-β (Aβ) plaques. To be noted: in words; cited from earlier work. The text has this: The formation of amyloid fibrils is one of the earliest pathological hallmarks of neurodegenerative diseases ([3], [6], [12]–[15]). […] In AD, Aβ aggregation outside the cell precedes Tau aggregation inside the cell ([4], [13], [18]).

T2 sequence (P10636 with tags, fused parts or gaps isoform P10636-8 DEL280-280): as above

`CC(C)[C@H](NC(=O)[C@H](CCC(=O)O)NC(=O)[C@H](CCC(=O)O)NC(=O)[C@H](CO)NC(=O)CNC(=O)[C@H](CO)NC(=O)CNC(=O)[C@H](Cc1c[nH]cn1)NC(=O)[C@@H]1CCCN1C(=O)[C@H](Cc1c[nH]cn1)NC(=O)[C@H](Cc1c[nH]cn1)NC(=O)[C@H](Cc1c[nH]c2ccccc12)NC(=O)[C@@H]1CCCN1C(=O)[C@H](Cc1c[nH]c2ccccc12)NC(=O)[C@H](Cc1c[nH]c2ccccc12)NC(=O)[C@@H]1CCCN1C(=O)[C@H](CCCNC(=N)N)NC(=O)[C@H](CCCNC(=N)N)NC(=O)[C@H](Cc1c[nH]c2ccccc12)NC(=O)[C@H](Cc1c[nH]c2ccccc12)NC(=O)[C@@H]1CCCN1C(=O)c1ccc2c(c1)C(=O)OC21c2ccc(O)cc2Oc2cc(O)ccc21)C(=O)N[C@@H](CC(=O)O)C(=O)O` [FibrilPaint1] (5FAM-PWWRRPWWPWHHPHGSGSEEVD-OH): the Kd (in general, a measure of binding affinity in units of concentration) in series [1] was 1600 nM; in series [2], above 10000 nM.

With “(Fl)-PWIRRPWWPWTTPTGSGSEEVD [FibrilPaint2, 22-residue fluorescein-labeled peptide]”, in series [3], the “ThT end-plateau / emitted ThT signal” value is listed as “lower the end-plateau in a dose-dependent manner” and the Tht inhibition result was “Yes”. Also, the Fibril binding entry in series [4] is listed as “No”. Further, the “Hydrodynamic radius (Rh)” value in series [5] is 1.7 nm.

For the molecule “(Fl)-PWWDDPWWPWHHPHGSGSEEVD [FibrilPaint4, 22-residue fluorescein-labeled peptide]”, in series [3], the “ThT end-plateau / emitted ThT signal” value is listed as “lower the end-plateau in a dose-dependent manner” and the Tht inhibition result is on record as “Yes”. The Fibril binding result in series [4] was “No”. Also, in series [5], the “Hydrodynamic radius (Rh)” value was found to be 1.7 nm.

On to “(Fl)-PWWDDPWWPWTTPTGSGSEEVD [FibrilPaint3, 22-residue fluorescein-labeled peptide]”, for which, in series [3], the “ThT end-plateau / emitted ThT signal” value is reported as “lower the end-plateau in a dose-dependent manner” and the Tht inhibition result is “Yes”. The Fibril binding entry in series [4] was “No”. Also, the “Hydrodynamic radius (Rh)” value in series [5] was 1.7 nm.

B1: Lecanemab: antibody approved to target Amyloid-β (Aβ) plaques (antibody, chains of the INN, looked up, V domains shown)
VH: EVQLVESGGGLVQPGGSLRLSCSASGFTFSSFGMHWVRQAPGKGLEWVAYISSGSSTIYYGDTVKGRFTISRDNAKNSLFLQMSSLRAEDTAVYYCAREGGYYYGRSYYTMDYWGQGTTVTVSS
VL: DVVMTQSPLSLPVTPGAPASISCRSSQSIVHSNGNTYLEWYLQKPGQSPKLLIYKVSNRFSGVPDRFSGSGSGTDFTLRISRVEAEDVGIYYCFQGSHVPPTFGPGTKLEIK
For B1, in series [6], the clinical effect result was “modest” and the risks result is “significant risks involved”.
